From PubChem BioAssay AID1745861 come the findings set out here.

As usually defined, the IC50 is the point on the concentration scale where inhibition reaches its midpoint.

Solute carrier family 22 member 3 (Homo sapiens), sequence (O75751 whole entry, looked up): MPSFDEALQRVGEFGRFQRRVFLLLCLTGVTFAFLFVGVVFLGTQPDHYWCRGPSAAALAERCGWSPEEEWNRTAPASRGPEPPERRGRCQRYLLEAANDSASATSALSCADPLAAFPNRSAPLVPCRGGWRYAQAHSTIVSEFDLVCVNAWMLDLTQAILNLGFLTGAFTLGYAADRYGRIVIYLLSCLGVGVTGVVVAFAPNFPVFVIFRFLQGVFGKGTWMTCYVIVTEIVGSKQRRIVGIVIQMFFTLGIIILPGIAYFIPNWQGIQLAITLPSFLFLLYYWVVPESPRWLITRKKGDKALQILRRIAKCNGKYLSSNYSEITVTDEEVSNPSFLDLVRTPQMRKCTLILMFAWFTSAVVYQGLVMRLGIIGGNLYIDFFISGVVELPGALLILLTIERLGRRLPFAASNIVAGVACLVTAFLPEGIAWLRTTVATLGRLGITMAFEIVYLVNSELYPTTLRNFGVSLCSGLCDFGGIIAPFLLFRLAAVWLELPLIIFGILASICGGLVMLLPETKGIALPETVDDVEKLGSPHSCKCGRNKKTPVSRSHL

The test addresses Solute carrier family 22 member 3 (Homo sapiens) (UniProt O75751). Kind of test: SLC22A3 transporter inhibition of MPP+ response – HEK293 JumpIn overexpressing cells, impedance, dose response (AID 1745861). Particulars: HEK293 JumpIn OCT3, MPP+ uptake, impedance (xCELLigence).
Turning to `Cc1cn(-c2cc(NC(=O)c3ccc(C)c(Nc4nccc(-c5cccnc5)n4)c3)cc(C(F)(F)F)c2)cn1`, the IC50 was 0.5 µM.

Turning to `CCN1/C(=C/c2ccc3ccccc3[n+]2CC)C=Cc2ccccc21`, the IC50 was 0.4 µM.

With `C=CC(=O)N1CCC[C@@H](n2nc(-c3ccc(Oc4ccccc4)cc3)c3c(N)ncnc32)C1`, the IC50 was 7.9 µM.

`C[C@]12C[C@H](O)[C@H]3[C@@H](CCC4=CC(=O)CC[C@@]43C)[C@@H]1CC[C@@H]2C(=O)CO`: the IC50 is 1.6 µM.

In the case of `C[n+]1ccc(-c2ccccc2)cc1`, the IC50 is 199 µM.
